The results in this text go back to patent publication US10676465B2, “GLP-1 receptor agonists and uses thereof” (Pfizer Inc., priority 2018, dated 2020).

In experiment [1] the target is human GLP-1R (Homo sapiens, UniProt P43220, G168S). As to the kind of experiment: CHO GLP-1R Clone H6 - Assay 1 (HTRF cAMP agonist assay). The conditions noted are these: for EC50: CHO GLP-1R Clone H6, cAMP HTRF, geometric mean; for Emax: CHO GLP-1R Clone H6, arithmetic mean, relative to saturating GLP-1 (1 μM). In kind it is cell-based. In general terms: TR-FRET usually uses a lanthanide donor and a delayed reading to cut background.
human GLP-1R (Homo sapiens, UniProt P43220, G168S), sequence (P43220 24-463 G168S limits assumed): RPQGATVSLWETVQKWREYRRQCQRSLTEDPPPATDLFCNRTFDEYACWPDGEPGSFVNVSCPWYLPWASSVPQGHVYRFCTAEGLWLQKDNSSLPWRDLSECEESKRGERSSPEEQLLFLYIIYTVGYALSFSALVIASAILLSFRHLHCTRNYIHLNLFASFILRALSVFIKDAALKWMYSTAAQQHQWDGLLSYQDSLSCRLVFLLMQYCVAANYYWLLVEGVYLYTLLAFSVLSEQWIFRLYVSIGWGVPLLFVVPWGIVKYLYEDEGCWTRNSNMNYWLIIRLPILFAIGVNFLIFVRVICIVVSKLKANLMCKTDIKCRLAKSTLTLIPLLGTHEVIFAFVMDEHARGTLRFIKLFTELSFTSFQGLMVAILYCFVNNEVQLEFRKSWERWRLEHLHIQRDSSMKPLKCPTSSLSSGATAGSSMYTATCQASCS

Experiment [2] has as its target human GLP-1R (Homo sapiens (Human), UniProt P43220, L260F). As to the kind of experiment: CHO GLP-1R Clone C6 - Assay 2 (HTRF cAMP agonist assay, low receptor density). The settings on record: for Emax: read-out: Assay 2 Emax (%), CHO GLP-1R Clone C6 (low receptor density), arithmetic mean, relative to saturating GLP-1 (1 μM).
Experimental: CHO GLP-1R Clone C6—Assay 2
GLP-1R-mediated agonist activity was determined with a cell-based functional assay utilizing an HTRF (Homogeneous Time-Resolved Fluorescence) cAMP detection kit (cAMP HI Range Assay Kit; Cis Bio cat #62AM6PEJ) that measures cAMP levels in the cell. The method is a competitive immunoassay between native cAMP produced by the cells and exogenous cAMP labeled with the dye d2. The tracer binding is visualized by a mAb anti-cAMP labeled with Cryptate. The specific signal (i.e. energy transfer) is inversely proportional to the concentration of cAMP in either a standard or an experimental sample.
The human GLP-1R coding sequence (NCBI Reference Sequence NP_002053.3, including naturally-occurring variant Leu260Phe) was subcloned into pcDNA5-FRT-TO and a clonal CHO cell line stably expressing a low receptor density was isolated using the Flp-In™ T-Rex™ System, as described by the manufacturer (ThermoFisher).
Cells were removed from cryopreservation, re-suspended in 40 mL of Dulbecco's Phosphate Buffered Saline (DPBS—Lonza Cat #17-512Q) and centrifuged at 800×g for 5 minutes at 22° C. The DPBS was aspirated, and the cell pellet was re-suspended in 10 mL of complete growth medium (DMEM:F12 1:1 Mixture with HEPES, L-Gln, 500 mL (DMEM/F12 Lonza Cat #12-719F), 10% heat inactivated fetal bovine serum (Gibco Cat #16140-071), 5 mL of 100× Pen-Strep (Gibco Cat #15140-122), 5 mL of 100×L-Glutamine (Gibco Cat #25030-081), 700 μg/mL Hygromycin (Invitrogen Cat #10687010) and 15 μg/mL Blasticidin (Gibco Cat # R21001). A 1 mL sample of the cell suspension in growth media was counted on a Becton Dickinson ViCell to determine cell viability and cell count per mL. The remaining cell suspension was then adjusted with growth media to deliver 1600 viable cells per well using a Matrix Combi Multidrop reagent dispenser, and the cells were dispensed into a white 384 well tissue culture treated assay plate (Corning 3570). The assay plate was then incubated for 48 hours at 37° C. in a humidified environment (95% O2, 5% CO2)
Varying concentrations of each compound to be tested (in DMSO) were diluted in assay buffer [HBSS with Calcium/Magnesium (Lonza/BioWhittaker cat #10-527F)/0.1% BSA (Sigma Aldrich cat # A7409-1L)/20 mM HEPES (Lonza/BioWhittaker cat #17-737E)] containing 100 μM 3-isobutyl-1-methylxanthin (IBMX; Sigma cat #15879). The final DMSO concentration in the compound/assay buffer mixture is 1%.
After 48 hours, the growth media was removed from the assay plate wells, and the cells were treated with 20 μL of the serially diluted compound in assay buffer for 30 minutes at 37° C. in a humidified environment (95% O2, 5% CO2). Following the 30 minute incubation, 10 μL of labeled d2 cAMP and 10 μL of anti-cAMP antibody (both diluted 1:20 in cell lysis buffer; as described in the manufacturer's assay protocol) were added to each well of the assay plate. The plates were then incubated at room temperature and after 60 minutes, changes in the HTRF signal were read with an Envision 2104 multi-label plate reader using excitation of 330 nm and emissions of 615 and 665 nm. Raw data were converted to nM cAMP by interpolation from a cAMP standard curve (as described in the manufacturer's assay protocol) and the percent effect was determined relative to a saturating concentration of the full agonist GLP-1 (1 μM) included on each plate. EC50 determinations were made from agonist dose response curves analyzed with a curve fitting program using a 4-parameter logistic dose response equation.
[3] abbreviates: read-out: Assay 2 EC50, CHO GLP-1R Clone C6 (low receptor density), cAMP HTRF, geometric mean.
Where [4] appears, read: EC50 in Assay 2, CHO GLP-1R Clone C6, cAMP, geometric mean of replicates.

Read-outs that look alike come from different tables or passages of the source.

human GLP-1R (Homo sapiens (Human), UniProt P43220, L260F), sequence (P43220 24-463 L260F): as the sequence (P43220 24-463 G168S limits assumed) above, with S145G, L237F counted along it

By EC50 is commonly meant the concentration that produces a half-maximal response. As usually defined, the Emax is the greatest response seen or fitted, relative to the assay's reference. Regarding `CC1(c2ccc(Cl)cc2F)Oc2cccc(C3CCN(Cc4nc5ccc(C(=O)O)cc5n4Cc4cnco4)CC3)c2O1` (stereo not drawn) [Example 69, 2-({4-[2-(4-chloro-2-fluorophenyl)-2-methyl-1,3-benzodioxol-4-yl]piperidin-1-yl}methyl)-1-(1,3-oxazol-5-ylmethyl)-1H-benzimidazole-6-carboxylic acid], the results for the half-maximal effective concentration (EC50) on human GLP-1R [1] and at human GLP-1R [2] (setting [3]) were 10 nM and 8.3 nM, respectively. The values for the Emax on human GLP-1R [1] and at human GLP-1R [2] were 100% and 98%, respectively. For the compound `O=C(O)c1ccc2nc(CN3CCC(c4cccc5c4O[C@@H](c4ccc(Cl)cc4F)O5)CC3)n(C[C@@H]3CCO3)c2c1F` [Example 101, 2-({4-[(2S)-2-(4-chloro-2-fluorophenyl)-1,3-benzodioxol-4-yl]piperidin-1-yl}methyl)-7-fluoro-1-[(2S)-oxetan-2-ylmethyl]-1H-benzimidazole-6-carboxylic acid], the EC50 on human GLP-1R [2] (setting [3]) stood at 19 nM. Also, on human GLP-1R [2], the Emax came out at 74%. On human GLP-1R [1], `COCCn1c(CN2CCC(c3cccc4c3OC(C)(c3cccc(C)n3)O4)CC2)nc2ccc(C(=O)O)cc21` (stereo not drawn) [Example 36, 1-(2-methoxyethyl)-2-({4-[2-methyl-2-(6-methylpyridin-2-yl)-1,3-benzodioxol-4-yl]piperidin-1-yl}methyl)-1H-benzimidazole-6-carboxylic acid] registered an EC50 of 760 nM and an Emax of 85%. At human GLP-1R [2] (setting [4]), `C[C@]1(c2ccc(Cl)cc2F)Oc2cccc(C3CCN(Cc4nc5ccc(C(=O)O)cc5n4C[C@@H]4CCO4)CC3)c2O1` [7, free acid, 2-({4-[(2S)-2-(4-Chloro-2-fluorophenyl)-2-methyl-1,3-benzodioxol-4-yl]piperidin-1-yl}methyl)-1-[(2S)-oxetan-2-ylmethyl]-1H-benzimidazole-6-carboxylic Acid] gave an EC50 of 4.3 nM. For the compound `COCCn1c(CN2CCC(c3cccc4c3OC(C)(c3cccc(OC)c3)O4)CC2)nc2ccc(C(=O)O)cc21` (stereo not drawn) [Example 39, 1-(2-methoxyethyl)-2-({4-[2-(3-methoxyphenyl)-2-methyl-1,3-benzodioxol-4-yl]piperidin-1-yl}methyl)-1H-benzimidazole-6-carboxylic acid], on human GLP-1R [1], the concentration giving a half-maximal response (EC50) came to 200 nM and the Emax came out at 83%.

Consider `CC1(c2ccc(Cl)cn2)Oc2cccc(C3CCN(Cc4nc5ccc(C(=O)O)cc5n4C[C@@H]4CCO4)CC3)c2O1` (stereo partly drawn) [Example 95, 2-({4-[2-(5-chloropyridin-2-yl)-2-methyl-1,3-benzodioxol-4-yl]piperidin-1-yl}methyl)-1-[(2S)-oxetan-2-ylmethyl]-1H-benzimidazole-6-carboxylic acid], for which the Emax at human GLP-1R [1] is 77%.

On human GLP-1R [1], `COCCn1c(CN2CCC(c3cccc4c3OC(C)(c3cccc(C(F)(F)F)c3)O4)CC2)nc2ccc(C(=O)O)cc21` (stereo not drawn) [Example 28, 1-(2-methoxyethyl)-2-[(4-{2-methyl-2-[3-(trifluoromethyl)phenyl]-1,3-benzodioxol-4-yl}piperidin-1-yl)methyl]-1H-benzimidazole-6-carboxylic acid] returned a concentration for a half-maximal effect (EC50) of 480 nM and an Emax of 87%. The like results for `COCCn1c(CN2CCN(c3cccc4c3OC(c3ccccc3)O4)CC2)nc2ccc(C(=O)O)cc21` (stereo not drawn) [Example 23, 1-(2-methoxyethyl)-2-{[4-(2-phenyl-1,3-benzodioxol-4-yl)piperazin-1-yl]methyl}-1H-benzimidazole-6-carboxylic acid] were, in that order, 680 nM and 76%. Compound `O=C(O)c1ccc2nc(CN3CCC(c4cccc5c4O[C@@H](c4ccc(Cl)cc4F)O5)CC3)n(C[C@@H]3CCO3)c2c1` [5, free acid, 2-({4-[(2S)-2-(4-Chloro-2-fluorophenyl)-1,3-benzodioxol-4-yl]piperidin-1-yl}methyl)-1-[(2S)-oxetan-2-ylmethyl]-1H-benzimidazole-6-carboxylic Acid] had a concentration for a half-maximal effect (EC50) on human GLP-1R [2] (setting [4]) of 25 nM. On human GLP-1R [1], `COCCn1c(CN2CCC(c3cccc4c3OC(C)(c3ccccn3)O4)CC2)nc2ccc(C(=O)O)cc21` (stereo not drawn) [Example 90, 1-(2-methoxyethyl)-2-({4-[2-methyl-2-(pyridin-2-yl)-1,3-benzodioxol-4-yl]piperidin-1-yl}methyl)-1H-benzimidazole-6-carboxylic acid] displayed an EC50 above 20000 nM. As for `CC1(c2ccc(Cl)cc2F)Oc2cccc(C3CCN(Cc4nc5ccc(C(=O)O)cc5n4CCc4ncc[nH]4)CC3)c2O1` (stereo not drawn) [Example 74, 2-({4-[2-(4-chloro-2-fluorophenyl)-2-methyl-1,3-benzodioxol-4-yl]piperidin-1-yl}methyl)-1-[2-(1H-imidazol-2-yl)ethyl]-1H-benzimidazole-6-carboxylic acid], on human GLP-1R [1], the EC50 came to 460 nM and the Emax came to 90%.

In the case of `COCCn1c(CN2CCC(c3cccc4c3OC(CO)(c3ccccc3)O4)CC2)nc2ccc(C(=O)O)cc21` (stereo not drawn) [Example 102, 2-({4-[2-(hydroxymethyl)-2-phenyl-1,3-benzodioxol-4-yl]piperidin-1-yl}methyl)-1-(2-methoxyethyl)-1H-benzimidazole-6-carboxylic acid], on human GLP-1R [1], the EC50 came to 600 nM and the maximal response (Emax) was determined as 86%. At human GLP-1R [1], `COCCn1c(CN2CCC(c3cccc4c3OC(C)(c3cccc(C)c3)O4)CC2)nc2ccc(C(=O)O)cc21` (stereo not drawn) [Example 85, 1-(2-methoxyethyl)-2-({4-[2-methyl-2-(3-methylphenyl)-1,3-benzodioxol-4-yl]piperidin-1-yl}methyl)-1H-benzimidazole-6-carboxylic acid] yielded an EC50 of 230 nM and an Emax of 80%. On human GLP-1R [1], `COCCn1c(CN2CCC(c3cccc4c3OC(C)(c3cccc(C#N)c3)O4)CC2)nc2ccc(C(=O)O)cc21` (stereo not drawn) [Example 87, 2-({4-[2-(3-cyanophenyl)-2-methyl-1,3-benzodioxol-4-yl]piperidin-1-yl}methyl)-1-(2-methoxyethyl)-1H-benzimidazole-6-carboxylic acid] registered an EC50 of 570 nM and an Emax of 89%. On to `C[C@]1(c2ccc(Cl)cc2F)Oc2cccc(C3CCN(Cc4nc5ccc(C(=O)O)c(F)c5n4C[C@@H]4CCO4)CC3)c2O1` [Example 100, 2-({4-[(2S)-2-(4-chloro-2-fluorophenyl)-2-methyl-1,3-benzodioxol-4-yl]piperidin-1-yl}methyl)-7-fluoro-1[(2S)-oxetan-2-ylmethyl]-1H-benzimidazole-6-carboxylic acid], for which the EC50 at human GLP-1R [2] (setting [3]) amounted to 7.6 nM. The Emax at human GLP-1R [2] worked out at 99%. In the case of `CC1(c2ccc(Cl)cc2F)Oc2cccc(C3CCN(Cc4nc5ccc(C(=O)O)cc5n4CCN4CCOCC4)CC3)c2O1` (stereo not drawn) [Example 44, 2-({4-[2-(4-chloro-2-fluorophenyl)-2-methyl-1,3-benzodioxol-4-yl]piperidin-1-yl}methyl)-1-[2-(morpholin-4-yl)ethyl]-1H-benzimidazole-6-carboxylic acid], at human GLP-1R [1], the EC50 was 160 nM and the Emax was found to be 78%. `COCCn1c(CN2CCN(c3cccc4c3OC(c3ccccc3)O4)CC2)nc2ccc(C(=O)O)cc21` (stereo not drawn) [Example 22, 1-(2-methoxyethyl)-2-{[4-(2-phenyl-1,3-benzodioxol-4-yl)piperazin-1-yl]methyl}-1H-benzimidazole-6-carboxylic acid] yielded an EC50 at human GLP-1R [1] above 20000 nM. As to `COCCn1c(CN2CCC(c3cccc4c3OC(C)(c3cccnc3)O4)CC2)nc2ccc(C(=O)O)cc21` (stereo not drawn) [Example 11, 1-(2-Methoxyethyl)-2-({4-[2-methyl-2-(pyridin-3-yl)-1,3-benzodioxol-4-yl]piperidin-1-yl}methyl)-1H-benzimidazole-6-carboxylic Acid], at human GLP-1R [1], the EC50 was 290 nM and the Emax is 78%.
